Data published in PubChem BioAssay AID2060909 (Molecular Pharmacology Branch, DTP, NCI, 2025).
Several values for one entry are separate records, joined by “and”; a condition that tells them apart may be missing. Equal entries are not always repeated.

Tested on: 362531-283-R-J2-PDC complex spheroid viability
Assay: Anticancer human tumor 362531-283-R-J2-PDC patient-derived colon adenocarcinoma cell line growth inhibition [RAS]
Settings: for viability, T/C: stronger effect = lower value
Source text: RAS pathway inhibitors in Combinations in Complex Spheroids
A high-throughput screen of multi-cell type tumor spheroids was designed to identify active combinations of RAS pathway inhibitors and targeted small molecules. Complex spheroids include a stromal component modeled by human endothelial cells (HUVEC) and fibroblasts modeled by human mesenchymal stem cells (MSCs). The concentration ranges selected for each drug and investigational agent were based upon clinically achievable concentrations if the clinical Cmax of the agent was known.
Compounds. The drugs and investigational agents: abemaciclib (NSC768073), cobimetinib (NSC768068), divarasib (GDC6063, NSC841802), docetaxel (NSC628503), GDC-1971 (RLY-1971, NSC841576), gemcitabine (NSC613327), inavolisib (NSC800729), ipatasertib (NSC767898), KB-0742 (NSC834161), MRTX-1133 (NSC836407), osimertinib (NSC779217), RMC-4630 (NSC839698), RMC-6236 (NSC851965), RMC-6291 (NSC852671), Ro-3306 (NSC812927), sapanisertib (NSC764658), SN-38 (NSC673596), staurosporine (NSC755774), SY5609 (NSC837396), and tovorafenib (DAY101, NSC766906), were obtained from the National Cancer Institute (NCI) Developmental Therapeutics Program Chemical Repository. The FDA-approved anticancer drug set is available from the NCI Developmental Therapeutics Program. […] The stock solutions were prepared in dimethyl sulfoxide (DMSO, Sigma-Aldrich, St. Louis, MO, cat. D2650) at 800-fold the tested concentration and stored at -70 degrees C prior to their use. All drugs and investigational agents were tested over a range starting from a high concentration at or near the clinical Cmax and decreasing in half-log increments. If the clinical Cmax for an agent had not been determined, the highest concentration tested was 10 microM.
Cell Culture. All cells were maintained in an incubator at 37 degrees C and 5% CO2 with 95% humidity. The PDC lines were cultured according to standard operating procedures established by the NCI PDMR. All PDCs were thawed and cultured in Matrigel-coated flasks prepared with a working solution of 1X Ham's F-12 nutrient mix, without supplementation (Invitrogen, Waltham, MA, cat. 11765054), 100 U/mL penicillin-streptomycin (Invitrogen, cat. 15140122), and 2.5% Matrigel (Corning Inc., Corning, NY, cat. 354248) for the first three passages. The 362531-283-R-J2-PDC and 782815-120-R-J1-PDC lines were cultured in 6C/Colon 1B media, which includes advanced DMEM/F-12 (Thermo Fisher Scientific, cat. 12634028), 10 mM HEPES (Thermo Fisher Scientific, cat. 15630080), 1X GlutaMAX supplement (Thermo Fisher Scientific, cat. 35050061), 0.1 mg/mL primocin (InvivoGen, San Diego, CA, cat. ant-pm-2), 10% defined fetal bovine serum, heat inactivated (HyClone Laboratories Inc., Logan, UT, cat. SH30070.03HI), 50% L-WRN conditioned media (ATCC, cat. CRL-3276), 1.25 mM N-Acetyl-L-cysteine (Sigma-Aldrich, cat. A9165), 10 mM nicotinamide (Sigma-Aldrich, cat. N0636), 1X B-27 supplement (Thermo Fisher Scientific, cat. 17504044), 1X N-2 supplement (Thermo Fisher Scientific, cat. 17502048), 50 ng/mL human EGF (Thermo Fisher Scientific, cat. PHG0311), and 10 microM Y-27632 dihydrochloride (Tocris Bioscience, cat. 1254). The K12877-001-R-J1-PDC line was cultured in 6I media, which includes all 6C/Colon 1B media plus 10 ng/mL human FGF-10 (PeproTech, cat. 100-26), 1 ng/mL human FGF-2 (PeproTech, cat. 100-18B), 1 µM prostaglandin E2 (Tocris Bioscience, cat. 2296), […] hydrocortisone (Sigma-Aldrich, cat. H4001), and […] bovine insulin (Sigma-Aldrich, cat. I6634). The K86415-001-R-J1-PDC line was cultured in 6D media, which includes all 6C/Colon 1B media components minus the L-WRN conditioned media. The 485176-168-R4-J1-PDC was cultured in PANC media, which includes all 6C/Colon 1B media plus 100 ng/mL human FGF-10 (PeproTech, cat. 100-26), 500 nM SB-431542 (Selleckchem, cat. S1067), and 10 nM gastrin (Tocris Bioscience, cat. 3006). […]

[1] = compound alone, run of 07/09/2024
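Note: spheroids exposed to the agents for 7 days before readout.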
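Throughout, for viability, T/C: luminescence viability as percent of DMSO vehicle control wells.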

| SMILES | IC50 (curve of compound) | IC50 [1] | viability, T/C (compound 0.00316 µM) | viability, T/C (compound 0.01 µM) | viability, T/C (compound 0.1 µM) | viability, T/C (compound 0.316 µM) | viability, T/C (compound 0.000949 µM) | viability, T/C (compound 0.003 µM) | viability, T/C (compound 0.00949 µM) | viability, T/C (compound 0.03 µM) | viability, T/C (compound 0.0949 µM) | viability, T/C (compound 0.3 µM) | viability, T/C (compound 0.0316 µM) | viability, T/C (compound 1 µM) | viability, T/C (compound 3.16 µM) | viability, T/C (compound 10 µM) |
| --- | --- | --- | --- | --- | --- | --- | --- | --- | --- | --- | --- | --- | --- | --- | --- | --- |
| CCc1c2c(nc3ccc(O)cc13)-c1cc3c(c(=O)n1C2)COC(=O)[C@]3(O)CC | 43.7 nM [middle of 4 runs] | – | – | – | – | – | 92.4% [middle of 4 runs] | 93.4% [middle of 4 runs] | 74.5% [middle of 4 runs] | 61.8% [middle of 4 runs] | 30.2% [middle of 4 runs] | 19.9% [middle of 4 runs] | – | – | – | – |
| CCn1c(-c2cccnc2C(C)OC)c2c3cc(ccc31)N1CCOC(CC(NC(=O)C(C(C)C)N(C)C(=O)C3(F)CCN(C(=O)C#CC(C)(C)N(C)C)CC3)C(=O)N3CCCC(N3)C(=O)OCC(C)(C)C2)C1 (configuration not stated) | – | > 0.3 µM | – | – | – | – | 103% [middle of 8 runs] | 102% [middle of 8 runs] | 107% [middle of 8 runs] | 103% [middle of 8 runs] | 104% [middle of 8 runs] | 100% [middle of 8 runs] | – | – | – | – |
| Cc1nc(N2CCC3(CC2)COC(C)C3N)c(CO)nc1Sc1ccnc(N)c1Cl (configuration not stated) | > 10 µM | – | – | – | 107% [middle of 4 runs] | 100% [middle of 4 runs] | – | – | – | – | – | – | 101% [middle of 4 runs] | 88.8% [middle of 4 runs] | 91.8% [middle of 4 runs] | 80% [middle of 4 runs] |
| Nc1ccn(C2OC(CO)C(O)C2(F)F)c(=O)n1 (configuration not stated) | 167 nM [middle of 4 runs] | – | 93.5% [middle of 4 runs] | 95.2% [middle of 4 runs] | 70.5% [middle of 4 runs] | 21.9% [middle of 4 runs] | – | – | – | – | – | – | 84.4% [middle of 4 runs] | 26.6% [middle of 4 runs] | – | – |
| O=C(c1ccc(F)c(F)c1Nc1ccc(I)cc1F)N1CC(O)([C@@H]2CCCCN2)C1 | 507 nM [middle of 4 runs] | – | 100% [middle of 4 runs] | 94.8% [middle of 4 runs] | 90.7% [middle of 4 runs] | 64.7% [middle of 4 runs] | – | – | – | – | – | – | – | 19% [middle of 4 runs] | – | – |

Now from value to molecule, other results behind:

| IC50 (curve of compound) | IC50 [1] | SMILES | viability, T/C (compound 0.00316 µM) | viability, T/C (compound 0.01 µM) | viability, T/C (compound 0.1 µM) | viability, T/C (compound 0.316 µM) | viability, T/C (compound 0.000949 µM) | viability, T/C (compound 0.003 µM) | viability, T/C (compound 0.00949 µM) | viability, T/C (compound 0.03 µM) | viability, T/C (compound 0.0949 µM) | viability, T/C (compound 0.3 µM) | viability, T/C (compound 0.0316 µM) | viability, T/C (compound 1 µM) | viability, T/C (compound 3.16 µM) | viability, T/C (compound 10 µM) |
| --- | --- | --- | --- | --- | --- | --- | --- | --- | --- | --- | --- | --- | --- | --- | --- | --- |
| > 1 µM | – | CCN1CCN(Cc2ccc(Nc3ncc(F)c(-c4cc(F)c5nc(C)n(C(C)C)c5c4)n3)nc2)CC1 | 100% (2×) and 99.6% and 106% | 95.9% [middle of 4 runs] | 79.9% [middle of 4 runs] | 65.4% [middle of 4 runs] | – | – | – | – | – | – | – | – | – | – |
| – | 223 nM [middle of 8 runs] | CCn1c(-c2cc(N3CCN(C)CC3)cnc2C(C)OC)c2c3cc(ccc31)-c1csc(n1)CC(NC(=O)C1CC1C)C(=O)N1CCCC(N1)C(=O)OCC(C)(C)C2 (configuration not stated) | – | – | – | – | 99% [middle of 8 runs] | 101% [middle of 8 runs] | 100% [middle of 8 runs] | 99.5% [middle of 8 runs] | 82.8% [middle of 7 runs] | 38.5% [middle of 8 runs] | – | – | – | – |
| > 10 µM | – | C[C@@H](NC(=O)c1ncnc(N)c1Cl)c1ncc(C(=O)Nc2cc(C(F)(F)F)c(Cl)cn2)s1 | – | – | 102% [middle of 4 runs] | – | – | – | – | – | – | – | 97.4% [middle of 4 runs] | 95.7% [middle of 4 runs] | 93.9% [middle of 4 runs] | 75.5% [middle of 4 runs] |
